What all share (type): in vivo
Experiment [1] has as its system velvetleaf (Abutilon theophrasti MEDIC.). As to the kind of experiment: Foliar treatment pot test, visual growth inhibition rate, velvetleaf (AT). Particulars: Abutilon theophrasti, foliar, read-out: Growth inhibition rate (%) of AT Measured value; for inhibition at 300 g/ha: 3.1-3.4 leaf stage. Summed up:
(§1)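 Seeds were sown in upland soil pots, and plants were sprayed on the foliage at a predetermined leaf stage with herbicidal compositions diluted in water at 300 L/ha. Growth inhibition was rated visually. Expected combination activity was calculated by Colby's formula to assess synergy.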

For experiment [2], the system named is prickly sida (Sida spinosa L.). As to the kind of experiment: Foliar treatment pot test, visual growth inhibition rate, prickly sida (SS). Particulars: Sida spinosa, foliar, read-out: Growth inhibition rate (%) of SS Measured value; for inhibition at 63 g/ha / inhibition at 125 g/ha / inhibition at 250 g/ha: 504 h, 21 DAT. An excerpt: (§2) When the herbicidal activity in a case where two active ingredients are combined, is larger than the simple sum of the respective herbicidal activities of the two active ingredients (the expected activity), it is called a synergistic effect. The activity expected by the combination of two active ingredients can be calculated as follows (Colby S. R., “Weed”, vol. 15, p. 20-22, 1967). E=α+β−(α×β÷100) where
(§3) Upland field soil was put into a 1/1,000,000 hectare pot, and seeds of various plants (barnyardgrass (Echinochloa crus-qalli L.), crabgrass (Digitaria sanguinalis L.), giant foxtail (Setaria faberi Herrm.), velvetleaf (Abutilon theophrasti MEDIC.) and prickly sida (Sida spinosa L.)) were sown. When the respective plants reached predetermined leaf stage, herbicidal compositions in predetermined amounts were diluted with water in an amount corresponding to 300 L/ha and applied for foliar treatment by a small sprayer.
(§4) Further, in accordance with the above Colby's formula, the growth inhibition rate (calculated value) was calculated. In Tables, with respect to the compound Q, Compound Nos. in Table 1 are described, and with respect to other herbicidal compounds, common names are described. Further, in Tables, barnyardgrass is represented by “EC”, crabgrass by “DS”, giant foxtail by “SF”, velvetleaf by “AT”, and prickly sida by “SS”.

Experiment [3] concerns crabgrass (Digitaria sanguinalis L.). Put plainly: Foliar treatment pot test, visual growth inhibition rate, crabgrass (DS). Particulars: Digitaria sanguinalis, foliar, read-out: Growth inhibition rate (%) of DS Measured value; for inhibition at 175 g/ha: 504 h, 21 DAT; for inhibition at 375 g/ha: 528 h, 3.1-4.0 leaf stage, 22 DAT. The method, boiled down: as §1
The subject of experiment [4] is barnyardgrass (Echinochloa crus-qalli L.). As to the kind of experiment: Foliar treatment pot test, visual growth inhibition rate, barnyardgrass (EC). Particulars: 4.0-5.0 leaf stage, read-out: Growth inhibition rate (%) of EC Measured value; for inhibition at 250 g/ha: 192 h, 8 DAT; for inhibition at 125 g/ha: 504 h, 21 DAT.
From the text: as §2, §3, §4

The mark [5] stands for this setting: 336 h, 4.6-5.3 leaf stage, 14 DAT.
Setting [6] is: 504 h, 3.0-3.8 leaf stage, 21 DAT.
[7] abbreviates: 504 h, 4.0-4.5 leaf stage, 21 DAT.

SMILES strings stand for the structures. Like-named read-outs stand apart in the source and are kept apart here.

Broadly, the inhibition is the share of the control response that was lost under treatment. For `CCNc1nc(Cl)nc(NC(C)C)n1` [Atrazine, atrazine], the inhibition at 500 g/ha in experiment [1] (setting [5]) was 45%; in experiment [3] (336 h, 5.0-6.0 leaf stage, 14 DAT, 500 g/ha), 0%. The inhibition at 1000 g/ha is 60% in experiment [1] (setting [5]) and 10% in experiment [3] (336 h, 5.0-6.0 leaf stage, 14 DAT, 1000 g/ha). Also, the inhibition at 2000 g/ha came to 70% in experiment [1] (setting [5]) and 25% in experiment [3] (336 h, 5.0-6.0 leaf stage, 14 DAT, 2000 g/ha). In addition, the inhibition at 50 g/ha in experiment [1] (480 h, 3.1-3.5 leaf stage, 20 DAT, 50 g/ha) came out at 30%; in experiment [3] (336 h, 4.0-4.5 leaf stage, 14 DAT, 50 g/ha), 20%. The inhibition at 100 g/ha in experiment [1] (480 h, 3.1-3.5 leaf stage, 20 DAT, 100 g/ha) is 30%. For the same compound, in experiment [1] (480 h, 3.1-3.5 leaf stage, 20 DAT, 200 g/ha), the inhibition at 200 g/ha is 35%. Besides, the inhibition at 400 g/ha in experiment [1] (480 h, 3.1-3.5 leaf stage, 20 DAT, 400 g/ha) was 40%; in experiment [3] (336 h, 4.0-4.5 leaf stage, 14 DAT, 400 g/ha) it was 30%. The inhibition at 600 g/ha in experiment [1] (480 h, 3.1-3.5 leaf stage, 20 DAT, 600 g/ha) came to 80%. The inhibition at 800 g/ha in experiment [1] (480 h, 3.1-3.5 leaf stage, 20 DAT, 800 g/ha) was 100%; in experiment [3] (336 h, 4.0-4.5 leaf stage, 14 DAT, 800 g/ha) it was 40%. The inhibition at 175 g/ha in experiment [1] (setting [6]) and in experiment [3] (3.5-4.3 leaf stage) was 0% each time. Also, the inhibition at 375 g/ha in experiment [1] (528 h, 4.0-4.4 leaf stage, 22 DAT, 375 g/ha) worked out at 25%; in experiment [3] it was 0%. Besides, the inhibition at 63 g/ha in experiment [2] (3.0-3.3 leaf stage) was determined as 30%. The inhibition at 125 g/ha in experiment [2] (3.0-3.3 leaf stage) worked out at 45%; in experiment [4] it was 0%. Besides, the inhibition at 250 g/ha was determined as 65% in experiment [2] (3.0-3.3 leaf stage) and 10% in experiment [4].

As for `CCNc1nc(Cl)nc(NC(C)(C)C)n1` [Terbuthylazine, terbuthylazine], the inhibition at 300 g/ha in experiment [1] (480 h, 20 DAT) is 50%; in experiment [1] (504 h, 21 DAT), 50%; in experiment [3] (336 h, 3.5-4.3 leaf stage, 14 DAT, 300 g/ha), 25%. Besides, the inhibition at 175 g/ha in experiment [1] (setting [6]) amounted to 0%; in experiment [1] (528 h, 4.0-4.4 leaf stage, 22 DAT), 15%; in experiment [3] (3.5-4.3 leaf stage) it was 0%. The inhibition at 500 g/ha in experiment [1] (setting [7]) came to 30%. In experiment [1] (setting [7]), the inhibition at 1000 g/ha came to 45%. In addition, in experiment [1] (setting [7]), the inhibition at 2000 g/ha is 55%. The inhibition at 100 g/ha in experiment [2] (480 h, 1.5-2.4 leaf stage, 20 DAT, 100 g/ha) amounted to 55%. Also, the inhibition at 63 g/ha in experiment [2] (3.0-4.0 leaf stage) is 0%. Also, the inhibition at 125 g/ha in experiment [2] (3.0-4.0 leaf stage) and in experiment [4] was 0% each time. The inhibition at 250 g/ha in experiment [2] (3.0-4.0 leaf stage) was 20%; in experiment [4] it was 10%. Further, the inhibition at 375 g/ha in experiment [3] is 0%.
